Assay results reported in patent publication US20240423971A1, “APPLICATION OF RIP2 INHIBITOR COMBINED WITH CHEMOTHERAPY DRUG” (NINGBO COMBIREG PHARMACEUTICAL TECHNOLOGY CO., LTD., priority 2021, published 2024).

What was measured:
[1] = tested on: melanoma (B16F10); assay: Melanoma (B16F10) tumor-bearing model, GSK583 combined with PTX; type: in vivo, C57BL/6 mice; details: GSK583 1 mg/kg
Description: Both of the test substances PTX (Sigma) and GSK583 (MCE) were prepared as a 20× DMSO stock solution, which was diluted with normal saline containing 5% (v/v) polyoxyethylene castor oil (Cremophor EL) to the administration concentration before use. Experimental animals and tumor strains: SPF grade male wild-type C57BL/6 mice, 6 to 8 weeks old, purchased from Beijing Vital River Laboratory Animal Technology Co., Ltd. Cells used in the experiment: murine melanoma cell line (B16-F10), purchased from ATCC. Mice were randomly divided into 4 groups with 8 mice in each group based on body weight according to the method shown in (A of FIG. 1 and B of FIG. 1), namely: (i) vehicle control group; (ii) GSK583 (1 mg/kg) group; (iii) PTX (10 mg/kg) group; (iv) GSK583 (1 mg/kg)+PTX (10 mg/kg) group. PTX, GSK583, and vehicle were administered intravenously once every 4 days for a total of 4 doses. The mice were subcutaneously inoculated with B16-F10 cells with a concentration of 2× 10^6 cells/mL and 0.1 mL/mouse, and the day of inoculation was recorded as DAY 0. The administration was started on DAY 1. During the administration, the animals were weighed every 2 days. The long diameter and short diameter of the tumor were measured with a vernier caliper. The tumor size was calculated by the formula: (½)×long diameter×(short diameter) 2. The experiment was terminated on DAY 15. After the mice were euthanized and dissected, the tumor was weighed and the tumor inhibition rate was calculated.

[2] = tested on: immune cells in tumor tissues of melanoma (B16F10) tumor-bearing model; assay: Flow cytometry detection of proportion of immune cells in tumor microenvironment of melanoma tumor-bearing mice; type: in vivo, C57BL/6 mice; details: GSK583 1 mg/kg, PTX 10 mg/kg, combination vs vehicle, GSK583-alone
Description: Preparation of enzyme lysis buffer: 1 g of collagenase type IV (Sigma C5138), 100 mg of hyaluronidase (Sigma H6254), and 20,000 units of DNase type IV (Sigma D5025) were added to 80 mL of HBSS and mixed well. The mixture was then added with HBSS to make up a volume of 100 mL to obtain a 100×enzyme lysis buffer, which was filtered through a 0.22 μm filter membrane and stored at −20° C., and diluted with HBSS to 1× concentration before use.
Dissociation of tumor tissues: Tumor tissues were removed and weighed (0.04 to 1 g), then cut into small pieces of 2×2 mm with a scalpel, added with 2.5 mL of enzyme lysis mixture, and transferred to a gentleMACS C Tube (Miltenyi Biotec 130-096-334). The C Tube was inverted on a gentleMACS Dissociator (Miltenyi Biotec 130-093-235), and the program “gentleMACS Program m_impTumor_02” was run. The C Tube was removed from the gentleMACS Dissociator and incubated at 37° C. for 40 minutes. The C Tube was inverted on the gentleMACS Dissociator again, and the program “gentleMACS Program m_impTumor_03” was run. […]
Flow cytometry detection: After counting the dissociated tumor tissues, the cell concentration was adjusted, and 200 μL/well of cells (5 to 10×10^5 cells/well) were added to a 96 U-bottom plate. […] The cells were resuspended in 100 μL/well of cell staining buffer, and then detected by flow cytometry.

SMILES: CC(=O)O[C@H]1C(=O)[C@@]2(C)[C@H]([C@H](OC(=O)c3ccccc3)[C@]3(O)C[C@H](OC(=O)[C@H](O)[C@@H](NC(=O)c4ccccc4)c4ccccc4)C(C)=C1C3(C)C)[C@]1(OC(C)=O)CO[C@@H]1C[C@@H]2O [PTX, Paclitaxel]
- tumor weight at the end of the administration ([1]; B16-F10 in C57BL/6 mice, PTX 10 mg/kg i.v. every 4 days x4, DAY 15, vs control group): significantly and statistically lower than that of the control group
- growth rate of tumor volume ([1]; B16-F10 in C57BL/6 mice, PTX 10 mg/kg i.v. every 4 days x4, vs control group): slower than that of the control group
- tumor growth compared to the vehicle control group ([1]; B16-F10 s.c. in C57BL/6 mice, PTX 10 mg/kg i.v. once every 4 days, 4 doses, to DAY 15): significantly inhibited tumor growth
- proportion of neutrophils in tumor tissues [2]: significant decrease
